Earlier results, collected in patent US20210393580A1, “PROCYANIDINS FOR THE TREATMENT OF ENDOTHELIAL DYSFUNCTION TRIGGERED BY COVID-19” (priority 2020, published 2021).

How the values were obtained:
[1] = system: iNOS (inducible nitric oxide synthase)
[2] = system: SARS proteases, spike protein and nonstructural proteins (NSP-9, 15); conditions: Autodock vina; hydrogen bonds with active site residues, low binding energy
[3] = system: wild-type severe acute respiratory syndrome coronavirus (wtSARS-CoV); conditions: compounds fractionated from CC; for IC50: read-out: IC50, anti-wtSARS-CoV activity

SMILES	interaction with the SARS viral proteins [2]	further results
O=C1CCC(Cc2ccc(O)c(O)c2)O1 (stereo not drawn) [M1, δ-(3,4-dihydroxy-phenyl)-γ-valerolactone]		excessive nitrite production [1]: reducing; iNOS expression [1]: reducing iNOS (inducible nitric oxide synthase) expression
CCc1oc(=O)c(Cc2c(O)c(CC=C(C)C)c(O)c(C(C)=O)c2O)c(O)c1C [arzanol]	significant interaction	
COc1cc(/C=C/C(=O)O)ccc1O [ferulic acid]	significant interaction	
O=c1c(-c2ccc(O)cc2)coc2cc(O)cc(O)c12 [genistein]	significant interaction	
Oc1cc(O)c2c(c1)O[C@@]1(c3ccc(O)c(O)c3)Oc3cc(O)c4c(c3[C@@H]2[C@H]1O)O[C@H](c1ccc(O)c(O)c1)[C@H](O)C4 [procyanidin A2]		SI, anti-wtSARS-CoV activity [3]: 37.35; IC50 [3]: 29.9 ± 3.3 µM
Oc1cc(O)c2c(c1)O[C@H](c1ccc(O)c(O)c1)[C@H](O)[C@H]2c1c(O)cc(O)c2c1O[C@H](c1ccc(O)c(O)c1)[C@@H](O)C2 [procyanidin B1]		SI, anti-wtSARS-CoV activity [3]: 15.69; IC50 [3]: 41.3 ± 3.4 µM
Oc1ccc(C=Cc2cc(O)cc(O)c2)cc1 [resveratrol]	significant interaction	
CC(C)c1cc2c(c(O)c1O)[C@@]13CCCC(C)(C)[C@@H]1[C@H](OC3=O)[C@H]2O [rosmanol]	significant interaction	
Cc1cc(O)c(C(C)C)cc1O [thymohydroquinone]	significant interaction	
